According to US20020156269A1, “Crystals of diuridine tetraphosphate or salt thereof, process for producing the crystals, and process for producing the compounds” (YAMASA CORPORATION, priority 1998, published 2002):

Assays:
[1] = Hygroscopicity: standing for nine days at controlled temperature and relative humidity; format: physicochemical; settings: for decomposition or change in weight on standing: initial water content approximately 14%
Experimental: U2P4.4Na crystals (octahydrate) having a water content of approximately 14% were allowed to stand for nine days under the following conditions: a) 25° C. and a relative humidity of 57%; b) 25° C. and a relative humidity of 75%; and c) 40° C. and a relative humidity of 75%. […] The crystals have proven to be stable and to have no hygroscopicity. U2P4.4Na crystals (tetrahydrate) having a water content of approximately 8% were allowed to stand for nine days under conditions of 40° C. and a relative humidity of 75%. In this case, the water content increased to 14-15%.

[2] = Stability: acceleration test in sealed bottles at 60° C. for 13 days; format: physicochemical; settings: sealed bottle, 13 days at 60° C.
Experimental: U2P4.4Na crystals (octahydrate) and a lyophilized product were placed in respective bottles, which were then sealed and allowed to stand for 13 days at 60° C. (acceleration test).

Structure (SMILES)	decomposition or change in weight on standing ([1]; nine days, 25° C. and a relative humidity of 57%)	decomposition or change in weight on standing ([1]; nine days, 25° C. and a relative humidity of 75%)	decomposition or change in weight on standing ([1]; nine days, 40° C. and a relative humidity of 75%)	decomposition [2]	water content after standing ([1]; nine days, 40° C. and a relative humidity of 75%, initial water content approximately 8% (tetrahydrate))	state of the product on storage ([1]; 40° C. and a relative humidity of 75%, on the seventh day of storage)	change of water content on standing ([1]; nine days, 40° C. and a relative humidity of 75%, initial water content approximately 1%)	weight loss of U2P4.4Na [2]
O=c1ccn([C@@H]2O[C@H](COP(=O)([O-])OP(=O)([O-])OP(=O)([O-])OP(=O)([O-])OC[C@H]3O[C@@H](n4ccc(=O)[nH]c4=O)C(O)C3O)C(O)C2O)c(=O)[nH]1.[Na+].[Na+].[Na+].[Na+] (stereo partly drawn) [U2P4.4Na crystals (octahydrate), P^1,P^4-di(uridine 5′-)tetraphosphate tetrasodium salt]	No decomposition or change in weight	No decomposition or change in weight	No decomposition or change in weight	No decomposition	–	–	–	–
O=c1ccn([C@@H]2O[C@H](COP(=O)([O-])OP(=O)([O-])OP(=O)([O-])OP(=O)([O-])OC[C@H]3O[C@@H](n4ccc(=O)[nH]c4=O)C(O)C3O)C(O)C2O)c(=O)[nH]1.[Na+].[Na+].[Na+].[Na+] (stereo partly drawn) [U2P4.4Na crystals (tetrahydrate), P^1,P^4-di(uridine 5′-)tetraphosphate tetrasodium salt]	–	–	–	–	14-15%	–	–	–
O=c1ccn([C@@H]2O[C@H](COP(=O)([O-])OP(=O)([O-])OP(=O)([O-])OP(=O)([O-])OC[C@H]3O[C@@H](n4ccc(=O)[nH]c4=O)C(O)C3O)C(O)C2O)c(=O)[nH]1.[Na+].[Na+].[Na+].[Na+] (stereo partly drawn) [lyophilized product, P^1,P^4-di(uridine 5′-)tetraphosphate tetrasodium salt, reference compound]	–	–	–	partial decomposition	–	mud-like state due to deliquescence	increased gradually	approximately 1.4%
